In patent US4935579A, “Separation of m-diisopropylbenzene from p-diisopropylbenzene by azeotropic distillation with alcohols” (priority 1988, dated 1990):

experiment: Packed rectification column (Berl saddles, 2.3 theoretical plates), Fenske equation; format: physicochemical; details: 80 g m-DIPB, 20 g p-DIPB, 40 g agent; two hours total reflux
Excerpt: A solution comprising 80 grams of m-DIPB, 20 grams of p-DIPB and 40 grams of o-isopropyl phenol was placed in the stillpot and heated. After two hours of refluxing a total reflux, analysis was made by gas chromatography. The overhead composition was 78% m-DIPB, 22% p-DIPB and the stillpot analysis was 62.7% m-DIPB, 37.3% p-DIPB. Using these compositions in the Fenske equation with the number of theoretical plates in the column being 2.3 gave an average relative volatility of 1.34 for each theoretical plate.

overhead composition, m-DIPB [%]	overhead composition, p-DIPB [%]	stillpot composition, m-DIPB [%]	stillpot composition, p-DIPB [%]	Compound
78	22	62.7	37.3	CC(C)c1ccccc1O [o-Isopropyl phenol]

same assay, conditions: 80 g m-DIPB, 20 g p-DIPB, 40 g agent; two hours total reflux; Fenske equation, 2.3 plates

average relative volatility for each theoretical plate	Compound
1.34	CC(C)c1ccccc1O [o-Isopropyl phenol]

experiment: Vapor-liquid equilibrium still: relative volatility of m-DIPB to p-DIPB with alcohol agent and azeotrope boiling point; format: physicochemical; details: 40 g m-DIPB - p-DIPB mixture and 40 g agent
Excerpt: The data in Tables 2 and 3 were obtained in a vapor-liquid equilibrium still. In each case, the starting material was a mixture containing 50 % alcohol, 25 % m-DIPB and 25 % p-DIPB. The boiling points of the azeotropes at 640 mm. Hg are shown. The relative volatilities are listed for each of the alcohols investigated.
Forty grams of m-DIPB - p-DIPB mixture and 40 grams of diethylene glycol butyl ether were charged to an Othmer type vapor-liquid equilibrium still and refluxed for thirteen hours. Analysis by gas chromatography gave a vapor composition of 68.9% m-DIPB, 31.1% p-DIPB; a liquid decomposition of […], 36.8% p-DIPB. This indicates a relative volatility of m-DIPB to p-DIPB of 1.29.
Forty grams of m-DIPB - p-DIPB mixture and 40 grams of diethylene gylcol methyl ether were charged to the vapor-liquid equilibrium still and refluxed for eleven hours. Analysis indicated a vapor composition of 66.7% m-DIPB, 33.3% p-DIPB; a liquid composition of […] which is a relative volatility of 1.28.

liquid composition, p-DIPB (second figure) [%]	Compound	liquid composition, m-DIPB [%]
	COCCOCCO [Diethylene glycol methyl ether]	60.9
36.8	CCCCOCCOCCO [Diethylene glycol butyl ether]	63.2

same assay, conditions: 40 g m-DIPB - p-DIPB mixture and 40 g agent; gas chromatography

Compound	vapor composition, m-DIPB [%]	vapor composition, p-DIPB [%]
COCCOCCO [Diethylene glycol methyl ether]	66.7	33.3
CCCCOCCOCCO [Diethylene glycol butyl ether]	68.9	31.1

same assay, conditions: 640 mm. Hg; starting mixture 50 % alcohol, 25 % m-DIPB, 25 % p-DIPB

Compound	Azeotrope B.P. [°C]
CC(C)CC(O)CC(C)C [Diisobutyl carbinol]	180
Cc1cccc(O)c1 [m-Cresol]	189
CCCCC(CC)CO (stereo not drawn) [2-Ethyl hexanol]	183
Oc1ccccc1 [Phenol]	174
CC(C)(C)c1ccccc1O [o-tert. Butyl phenol]	205
CCCCOCCOCC(C)O (stereo not drawn) [Butoxyethoxypropanol]	199
CC(C)c1ccccc1O [o-Isopropyl phenol]	200
CCCCCCCCCO [n-Nonyl alcohol]	196
Cc1ccccc1O [o-Cresol]	184
OCC1CCCO1 (stereo not drawn) [Tetrahydrofurfuryl alcohol]	171
CCCCCCOCCO [Ethylene glycol hexyl ether]	195
CCC(C)c1ccccc1O (stereo not drawn) [o-sec. Butyl phenol]	205
COCCOCCO [Diethylene glycol methyl ether]	182
CCCCOCCOCCO [Diethylene glycol butyl ether]	200
Cc1ccc(O)cc1 [p-Cresol]	188
CCOCCOCCO [Diethylene glycol ethyl ether]	185
CC(C)CCCCCCO [Isononyl alcohol]	194
CC(O)CO (stereo not drawn) [Propylene glycol]	168
Dipropylene glycol methyl ether	186

same assay, conditions: Examples 1 and 2; 40 g m-DIPB - p-DIPB mixture and 40 g agent; reflux thirteen or eleven hours

Compound	relative volatility of m-DIPB to p-DIPB
COCCOCCO [Diethylene glycol methyl ether]	1.28
CCCCOCCOCCO [Diethylene glycol butyl ether]	1.29

same assay, conditions: one part agent with one part m-DIPB - p-DIPB mixture

Relative Volatility of alcohol:DIPB mixture	Compound
1.27	CCCCC(CC)CO (stereo not drawn) [2-Ethyl hexanol]

same assay, conditions: vapor-liquid equilibrium still; starting mixture 50 % alcohol, 25 % m-DIPB, 25 % p-DIPB

Relative Volatility (m-DIPB to p-DIPB)	Compound
1.20	CC(C)CC(O)CC(C)C [Diisobutyl carbinol]
1.10	CCCCCCO [n-Hexanol]
1.27	CCCCC(CC)CO (stereo not drawn) [2-Ethyl hexanol]
1.14	CCCCCCCCO [1-Octanol]
1.13	CC(=O)CC(C)(C)O [Diacetone alcohol]
1.34	CC(C)c1ccccc1O [o-Isopropyl phenol]
1.06	OCCc1ccccc1 [Phenethyl alcohol]
1.23	CCCCCCCCCO [n-Nonyl alcohol]
1.26	CCCCCCOCCO [Ethylene glycol hexyl ether]
1.29	CCCCOCCOCCO [Diethylene glycol butyl ether]
1.25	Cc1ccc(O)cc1 [p-Cresol]
1.22	CC(C)CCCCCCO [Isononyl alcohol]
1.10	CCCCCCC(C)O (stereo not drawn) [2-Octanol]
1.15	CC(C)CCCCCO [Isooctanol]

Compound	Relative Volatility (m-DIPB to p-DIPB)
Cc1cccc(O)c1 [m-Cresol]	1.17
OCc1ccccc1 [Benzyl alcohol]	1.11
Oc1ccccc1 [Phenol]	1.24
CC(C)(C)c1ccccc1O [o-tert. Butyl phenol]	1.20
CCCCOCCO [Ethylene glycol butyl ether]	0.6
CCCCOCCOCC(C)O (stereo not drawn) [Butoxyethoxypropanol]	1.17
Cc1ccccc1O [o-Cresol]	1.26
OCC1CCCO1 (stereo not drawn) [Tetrahydrofurfuryl alcohol]	1.21
OCCOc1ccccc1 [Ethylene glycol phenyl ether]	1.14
CCC(C)c1ccccc1O (stereo not drawn) [o-sec. Butyl phenol]	1.23
COCCOCCO [Diethylene glycol methyl ether]	1.28
CCOCCOCCO [Diethylene glycol ethyl ether]	1.25
CC(O)CO (stereo not drawn) [Propylene glycol]	1.28

experiment: Boiling point and rectification of the isomers without agent; format: physicochemical; details: 99% purity, 75% efficiency, no agent
Description: In the manufacture of cumene, also called isopropylbenzene, by the alkylation of benzene with propylene, the most prevalent by-products are the diisopropylbenzenes with the meta and para isomers comprising most of the by-product. m-Diisopropylbenzene (m-DIPB) boils at 203.2° C. […] boils at 210.3° C. and these two have a relative volatility of 1.14. The difficulty of separating these two by rectification can be shown by the data in Table 1.
that rectification of m-DIPB from p-DIPB in 99% purity requires 95 actual plates. Using azeotropic distillation with an agent yielding a relative volatility of 1.29 would require only 48 actual plates.

actual plates required for rectification of m-DIPB from p-DIPB [actual plates]	Compound
95	CC(C)c1cccc(C(C)C)c1 [m-DIPB, m-Diisopropylbenzene]

experiment: not given; details: no agent; prior art description; cited from earlier work

Compound	boiling point [°C]	relative volatility of m-DIPB and p-DIPB without agent
CC(C)c1cccc(C(C)C)c1 [m-DIPB, m-Diisopropylbenzene]	203.2	1.14
CC(C)c1ccc(C(C)C)cc1 [p-DIPB, p-diisopropylbenzene]	210.3	

experiment: not given; details: m-DIPB and p-DIPB, no agent; cited from earlier work

Compound	relative volatility used in column calibration
CC(C)c1cccc(C(C)C)c1 [m-DIPB, m-Diisopropylbenzene]	1.14
